Reference: patent publication US10639285B2 (Aurea Biolabs Private Limited, priority 2014, dated 2020)

Assay: Absorption of curcumin and white curcumin in the blood plasma (FIG. 3)
Type: in vivo

Which “time of absorption in the blood plasma” value does the source give for `COc1cc(C=CC(=O)CC(=O)C=Cc2ccc(O)c(OC)c2)ccc1O` [curcumin, 1,7 bis (4-hydroxy-3-methoxy phenyl)-1,6 heptadiene-3,5-dione] here?
Its value is 2 h.
